Patent US12285393B2, “Roles of modulators of intersectin-Cdc42 signaling in Alzheimer's disease” (priority 2017, dated 2025)

Assays:
GTP-bound (active) Cdc42 = target: T1, GTP-bound (active) Cdc42 (Mus musculus, UniProt P60766); assay: G-LISA in serum-starved Swiss 3T3 cells; format: cell-based; conditions: 50 μM
T1 construct: endogenous in cells; host or cells: Swiss 3T3 cells
Method: G-LISA: G-LISA is an ELISA-based assay that allows a quantitative determination of the levels of GTP-bound (active) Cdc42 in cellular lysates. Swiss 3T3 cells (˜50% confluent) were starved for 24h then treated with ZCL278 (50 μM) for 0, 5, 10, 15, 30, or 60 m. Cells were lysed and G-LISA conducted according to Cytoskeleton G-LISA protocol. Briefly, ˜300 μL of lysis buffer was added, cells were scraped, transferred to a centrifuge tube, and centrifuged at 0° C. for 1 min at 13,200 rpm. Samples were flash frozen in liquid nitrogen. Approximately […] protein was loaded into duplicate wells for G-LISA. Absorbance was measured at 490 nm.

[1] = Solubility profile by optical density; format: physicochemical; conditions: for solubility: in DM19
Description: ZCL278, ZCL279, and ZCL367 were all tested for solubility in the 5 FDA approved solvents to be used in humans. […] Results are shown below in Tables 2-4. Ratio refers to the optical density of the solution comprising the modulator compound/the optical density of the carder/solvent alone.

mice = assay: Long-term survival after one injection; format: in vivo; conditions: mouse, in vivo
Method: Long-term Survival. Groups of 10 mice were treated with one injection of ZCL278 (up to 0.8 mg/g), ZCL279 (up to 0.6 mg/g), or ZCL367 (up to 1.6 mg/g) to examine potential lethal dosage (the maximal dosage tested when no mice died). […] Durations longer than 3 months have not been tested. As a reference, working dosage for the behavioral assessment described below used 20 ug/g for injection, […] than the highest dosage of 0.8 mg/g tested in the long-term survival experiment.

amyloid deposits = assay: Amyloid deposition in the hippocampus (antibody 4G8 immunostaining); format: in vivo, mice; conditions: for amyloid deposits in the hippocampus: 3×Tg AD mice (untreated: average of 4); for amyloid deposition in the hippocampus: WT mice
Method: (§1) Tissue preparation: Mice were deeply anesthetized with 3% isoflourane vapor and euthanized by cervical dislocation. Brain tissues were harvested, and then either snap frozen for Western Blot analysis or fixed in 4% paraformaldehyde overnight for immunohistochemistry (IHC) analysis. Fixed brain tissues were washed with phosphate-buffered saline (PBS) and moved to cryoprotectant (30% sucrose in PBS) at 4° C. Once sunk in the cryoprotectant, brain tissues were subsequently embedded in the optimal cutting temperature compound (O.C.T) and rapidly frozen with chilled isopentane. Then, 8˜30 μm thickness of cryostate section was applied to brain tissues, 30 μm sections were immersed in the PBS and store at 4° C. refrigerator, and 8 μm sections were store at −80° C. refrigerator.
(§2) Immunohistochemistry analysis: All sections were first treated with 1% H2O2 in PBS for 20 minutes at room temperature, then incubated with 0.5% Triton X-100 for 30 minutes and blocked for 30 minutes at room temperature. Brain tissues were incubated with primary antibodies from Table 6, below. […] All sections were eventually dehydrated in 95% ethanol and mounted on coverslips for light microscopy (Carl Zeiss, Thornwood, New York, United States of America).
(§3) Methods: Brain tissues collected from each treatment group of mice from the behavior studies were subjected to pathological analysis (e.g., immunohistochemical analysis, as described above in Example 5). […] Growth cone dynamics and spine motility were either recorded with time-lapse microscopy or stained by using the fluorescein isothiocyanate (FITC) or Cyanine Dye 3 (Cy3)-conjugated Phalloidin.

[2] = tested on: microtubule-associated tau; assay: Tau phosphorylation in the dentate gyrus (antibody AT8 immunostaining); format: in vivo, mice
Method: as §1, §2, §3

microglia = assay: Pro-inflammatory microglia in the hippocampus (Iba-1); format: in vivo; conditions: WT mice; 20× objective lens
Method: as §1, §2, §3

3×Tg-AD mice = assay: Nesting test; format: in vivo; conditions: 3×Tg AD mouse model; 20 μg/g I.P. once a week, 4 weeks
Description: Six-month-old C57/BL6 (WT) and 3×Tg-AD mice with an average weight of 24 g from Jackson Laboratory (Bar Harbor, Maine, United States of America) were used. The 3×Tg-AD mice in hybrid 129/C57BL/6 background contain two mutant human transgenes, hAPP harboring Swedish mutation (hAPPswe) and mutant htau (htau301L) under a neuron-specific promoter, and also contain the knock-in mutant presenilin 1 (PS1M146V). See Oddo et al. (2003) Neuron 39:409-421). 3×Tg-AD mice were received from Jackson Laboratory as Psen1 B6:129-Psen1<tmMpm>Tg(APPSwetauP301L)1Lfa/J and the wild type control as SF2: (B6129SF1/J+p+Tyr-c+Mgf-SIJ)F2. All mice were subjected to two weeks of training for familiarizing behavioral test procedures. […]
Nesting test: Similar to the burrowing test, 2.5 hours before the start of the dark cycle, mice were housed singly in cages containing one 5 cm square of pressed cotton (‘Nestlet’, which the mice normally received as part of their environmental enrichment) with which to make a nest. The condition of each nest was assessed after 2 hours, according to a four-point scale as follows: • 1=Nestlet not noticeably touched (>90% intact). • 2=Nestlet partially tom up (70-90% remaining intact). • 3=Mostly shredded but often no identifiable nest site (<50% remaining intact). • 4=An identifiable nest (<10% remaining intact).

[3] = Dimethyl Sulfoxide (DMSO), RT-3 h
[4] = Polyethylene Glycol300 (PEG-300), 30%, RT-3 h
[5] = 1,2-Propanediol, 40%, 37° C., 1 hour
[6] = Dimethyl Sulfoxide (DMSO), 37° C., 1 hour
[7] = Pluronic F-68, 10%, 37° C., 1 hour
[8] = Polyethylene Glycol300 (PEG-300), 30%, 37° C., 1 hour

T1 sequence (P60766 whole entry): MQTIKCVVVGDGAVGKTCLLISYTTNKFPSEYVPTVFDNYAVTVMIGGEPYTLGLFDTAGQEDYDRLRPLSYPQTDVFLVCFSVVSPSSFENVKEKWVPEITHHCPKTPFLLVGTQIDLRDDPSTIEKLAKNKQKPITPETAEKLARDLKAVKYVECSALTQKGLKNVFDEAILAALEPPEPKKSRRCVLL

Cc1cc(C)nc(NS(=O)(=O)c2ccc(NC(=S)NC(=O)COc3ccc(Br)cc3Cl)cc2)n1 [ZCL278, 4-(3-(2-(4-bromo-2-chloro-phenoxy)-acetyl)-thioureido)-N-(4,6-dimethylpyrimidin-2-yl)-benzenesulfonamide]
effect on GTP-bound (active) Cdc42 (GTP-bound (active) Cdc42; 0-60 m, serum-starved Swiss 3T3 cells): activates Cdc42
time of Cdc42 activity peak (GTP-bound (active) Cdc42; another peak): about 60 min
time of Cdc42 activity peak (GTP-bound (active) Cdc42; first peak): Approximately 15 min
Ratio (optical density solution/solvent alone) ([1]; 1,2-Propanediol, 40%, RT-3 h): 3.154
optical density of solution ([1]; 1,2-Propanediol, 40%, RT-3 h): 0.123
Ratio (optical density solution/solvent alone) [1, 3]: 1.119
optical density of solution [1, 3]: 0.047
Ratio (optical density solution/solvent alone) ([1]; Pluronic F-68, RT-3 h): 2.675
optical density of solution ([1]; Pluronic F-68, RT-3 h): 0.107
Ratio (optical density solution/solvent alone) [1, 4]: 2.275
optical density of solution [1, 4]: 0.091
Ratio (optical density solution/solvent alone) ([1]; Sesame Oil, RT-3 h): 1.395
optical density of solution ([1]; Sesame Oil, RT-3 h): 0.06
Ratio (optical density solution/solvent alone) ([1]; Sterile Water, RT-3 h): 2.211
optical density of solution ([1]; Sterile Water, RT-3 h): 0.084
Ratio (optical density solution/solvent alone) ([1]; Tween 80, 0.4%, RT-3 h): 1.725
optical density of solution ([1]; Tween 80, 0.4%, RT-3 h): 0.069
Ratio (optical density solution/solvent alone) ([1]; dPBS, RT-3 h): 1.795
optical density of solution ([1]; dPBS, RT-3 h): 0.07
solubility [1]: completely soluble
Lethal Dosage (mice): 0.8 mg/g
Longest Dosing Duration (mice): 3 months
amyloid deposits in the hippocampus (amyloid deposits): no amyloid deposits
amyloid deposition in the hippocampus (amyloid deposits): No amyloid deposition
phosphorylation of microtubule-associated tau in the dentate gyrus ([2]; 3×Tg AD mice): not evident
phosphorylation of microtubule-associated tau in the dentate gyrus ([2]; WT mice): no evidence
Average Number of Microglia per Microscope Field, CA1 (microglia): 12
Average Number of Microglia per Microscope Field, CA2-3 (microglia): 10
Average Number of Microglia per Microscope Field, DG (microglia): 8

O=S(=O)(Nc1ccccc1O)c1ccc2oc3ccc(S(=O)(=O)Nc4ccccc4O)cc3c2c1 [ZCL279, N^2,N^8-bis(2-hydroxyphenyl)dibenzo[b,d]furan-2,8-disulfonamide]
Ratio (optical density solution/solvent alone) [1, 5]: 2.359
optical density of solution [1, 5]: 0.092
Ratio (optical density solution/solvent alone) [1, 6]: 1.071
optical density of solution [1, 6]: 0.045
Ratio (optical density solution/solvent alone) [1, 7]: 2.667
optical density of solution [1, 7]: 0.104
Ratio (optical density solution/solvent alone) [1, 8]: 3.762
optical density of solution [1, 8]: 0.158
Ratio (optical density solution/solvent alone) ([1]; Sesame Oil, 37° C., 1 hour): 1.872
optical density of solution ([1]; Sesame Oil, 37° C., 1 hour): 0.088
Ratio (optical density solution/solvent alone) ([1]; Sterile Water, 37° C., 1 hour): 6.158
optical density of solution ([1]; Sterile Water, 37° C., 1 hour): 0.234
Ratio (optical density solution/solvent alone) ([1]; Tween-80, 0.4%, 37° C., 1 hour): 3.105
optical density of solution ([1]; Tween-80, 0.4%, 37° C., 1 hour): 0.118
Ratio (optical density solution/solvent alone) ([1]; dPBS, 37° C., 1 hour): 3.846
optical density of solution ([1]; dPBS, 37° C., 1 hour): 0.15
solubility [1]: completely soluble
Lethal Dosage (mice): 0.6 mg/g
Longest Dosing Duration (mice): 3 months
instinctual behavior: nesting behavior (3×Tg-AD mice): improve instinctual behavior
amyloid deposits in the hippocampus (amyloid deposits): no amyloid deposits
amyloid deposition in the hippocampus (amyloid deposits): No amyloid deposition
phosphorylation of microtubule-associated tau in the dentate gyrus ([2]; 3×Tg AD mice): not evident
phosphorylation of microtubule-associated tau in the dentate gyrus ([2]; WT mice): no evidence
Average Number of Microglia per Microscope Field, CA1 (microglia): 13
Average Number of Microglia per Microscope Field, CA2-3 (microglia): 10
Average Number of Microglia per Microscope Field, DG (microglia): 4
